Experimental data reported in patent US12538924B2, “Pesticidally active heterocyclic derivatives with sulfur containing substituents” (SYNGENTA CROP PROTECTION AG, priority 2019, dated 2026).

Experiments:
Assay type in all cases: in vivo
[1] = tested on: Bemisia tabaci (Cotton White Fly); assay: Bemisia tabaci (Cotton White Fly): Feeding/Contact Activity; details: foliar, 144 h, application rate of 200 ppm, adult white flies on sprayed cotton leaf discs, 6 days after incubation
Protocol: Example B1: Bemisia tabaci (Cotton White Fly): Feeding/Contact Activity
Cotton leaf discs were placed on agar in 24-well microtiter plates and sprayed with aqueous test solutions prepared from 10'000 ppm DMSO stock solutions. After drying the leaf discs were infested with adult white flies. The samples were checked for mortality 6 days after incubation.

[2] = tested on: Diabrotica Balteata (Corn Root Worm); assay: Diabrotica balteata (Corn Root Worm), sprayed maize sprouts; details: 96 h, application rate of 200 ppm, L2 larvae on sprayed maize sprouts, 4 days after infestation, read-out: effect in at least one of the two categories (mortality or growth inhibition)
Protocol: Example B2: Diabrotica Balteata (Corn Root Worm)
Maize sprouts placed onto an agar layer in 24-well microtiter plates were treated with aqueous test solutions prepared from 10'000 ppm DMSO stock solutions by spraying. After drying, the plates were infested with L2 larvae (6 to 10 per well). The samples were assessed for mortality and growth inhibition in comparison to untreated samples 4 days after infestation.

[3] = tested on: Plutella xylostella (Diamond Back Moth); assay: Plutella xylostella (Diamond Back Moth), treated artificial diet; details: 192 h, application rate of 200 ppm, eggs on treated artificial diet, 8 days after infestation, read-out: effect in at least one of the two categories (mortality or growth inhibition)
Protocol: Example B5: Plutella xylostella (Diamond Back Moth)
24-well microtiter plates with artificial diet were treated with aqueous test solutions prepared from 10'000 ppm DMSO stock solutions by pipetting. After drying, Plutella eggs were pipetted through a plastic stencil onto a gel blotting paper and the plate was closed with it. The samples were assessed for mortality and growth inhibition in comparison to untreated samples 8 days after infestation.

[4] = tested on: Myzus persicae (Green Peach Aphid); assay: Myzus persicae (Green Peach Aphid): Feeding/Contact Activity; details: foliar, 144 h, application rate of 200 ppm, aphid population of mixed ages on sprayed sunflower leaf discs, 6 days after infestation
Protocol: Example B6: Myzus persicae (Green Peach Aphid): Feeding/Contact Activity
Sunflower leaf discs were placed onto agar in a 24-well microtiter plate and sprayed with aqueous test solutions prepared from 10'000 ppm DMSO stock solutions. After drying, the leaf discs were infested with an aphid population of mixed ages. The samples were assessed for mortality 6 days after infestation.

[5] = tested on: Spodoptera littoralis (Egyptian Cotton Leaf Worm); assay: Spodoptera littoralis (Egyptian Cotton Leaf Worm), sprayed cotton leaf discs; details: foliar, 72 h, application rate of 200 ppm, L1 larvae on sprayed cotton leaf discs, 3 days after infestation, read-out: control (mortality, anti-feeding effect or growth inhibition)
Protocol: Example B8: Spodoptera littoralis (Egyptian Cotton Leaf Worm)
Cotton leaf discs were placed onto agar in 24-well microtiter plates and sprayed with aqueous test solutions prepared from 10'000 ppm DMSO stock solutions. After drying the leaf discs were infested with five L1 larvae. The samples were assessed for mortality, anti-feeding effect, and growth inhibition in comparison to untreated samples 3 days after infestation. Control of Spodoptera littoralis by a test sample is given when at least one of the categories mortality, anti-feedant effect, and growth inhibition is higher than the untreated sample.

[6] = tested on: Euschistus heros (Neotropical Brown Stink Bug); assay: Euschistus heros (Neotropical Brown Stink Bug), sprayed soybean leaves; details: 120 h, application rate of 200 ppm, N2 nymphs on sprayed soybean leaves, 5 days after infestation, read-out: effect in at least one of the two categories (mortality or growth inhibition)
Protocol: Example B3: Euschistus heros (Neotropical Brown Stink Bug)
Soybean leaves on agar in 24-well microtiter plates were sprayed with aqueous test solutions prepared from 10'000 ppm DMSO stock solutions. After drying the leaves were infested with N2 nymphs. The samples were assessed for mortality and growth inhibition in comparison to untreated samples 5 days after infestation.

[7] = tested on: Myzus persicae (Green Peach Aphid); assay: Myzus persicae (Green Peach Aphid): Systemic Activity; details: 144 h, test rate of 24 ppm, roots of infested pea seedlings placed into test solutions, 6 days
Protocol: Example B7: Myzus persicae (Green Peach Aphid): Systemic Activity
Roots of pea seedlings infested with an aphid population of mixed ages were placed directly into aqueous test solutions prepared from 10'000 DMSO stock solutions. The samples were assessed for mortality 6 days after placing seedlings into test solutions.

CCS(=O)(=O)c1cc(Br)cnc1N1Cc2cnc(C(F)(F)F)cc2C1=O [Compound P7, 2-(5-bromo-3-ethylsulfonyl-2-pyridyl)-6-(trifluoromethyl)-3H-pyrrolo[3,4-c]pyridin-1-one]
≥ 80%: mortality at 200 ppm [1] | percent effect (mortality or growth inhibition) at 200 ppm [2] | percent effect (mortality or growth inhibition) at 200 ppm [3] | mortality at 200 ppm [4] | percent control (mortality, anti-feedant effect or growth inhibition) at 200 ppm [5]

CCS(=O)(=O)c1cc(C2CC2)cnc1N1Cc2cnc(C(F)(F)F)cc2C1=O [Compound P14, 2-(5-cyclopropyl-3-ethylsulfonyl-2-pyridyl)-6-(trifluoromethyl)-3H-pyrrolo[3,4-c]pyriclin-1-one]
≥ 80%: percent effect (mortality or growth inhibition) at 200 ppm [2] | percent effect (mortality or growth inhibition) at 200 ppm [6] | percent effect (mortality or growth inhibition) at 200 ppm [3] | mortality at 200 ppm [4] | mortality at 24 ppm [7] | percent control (mortality, anti-feedant effect or growth inhibition) at 200 ppm [5]

CCS(=O)(=O)c1ccc(C2CC2)nc1N1Cc2cnc(C(F)(F)F)cc2C1=O [Compound P15, 2-(6-cyclopropyl-3-ethylsulfonyl-2-pyridyl)-6-(trifluoromethyl)-3H-pyrrolo[3,4-c]pyriclin-1-one]
≥ 80%: percent effect (mortality or growth inhibition) at 200 ppm [2] | percent effect (mortality or growth inhibition) at 200 ppm [6] | percent effect (mortality or growth inhibition) at 200 ppm [3] | mortality at 200 ppm [4] | mortality at 24 ppm [7] | percent control (mortality, anti-feedant effect or growth inhibition) at 200 ppm [5]

CCS(=O)(=O)c1ccc(-c2ncccn2)nc1N1Cc2cnc(C(F)(F)F)cc2C1=O [Compound P16, 2-(3-ethylsulfonyl-6-pyrimidin-2-yl-2-pyridyl)-6-(trifluoromethyl)-3H-pyrrolo[3,4-c]pyriclin-1-one]
≥ 80%: percent effect (mortality or growth inhibition) at 200 ppm [2] | percent effect (mortality or growth inhibition) at 200 ppm [6] | percent effect (mortality or growth inhibition) at 200 ppm [3] | mortality at 200 ppm [4] | mortality at 24 ppm [7] | percent control (mortality, anti-feedant effect or growth inhibition) at 200 ppm [5]

CCS(=O)(=O)c1ccc(N2CCOC2=O)nc1N1Cc2cnc(C(F)(F)F)cc2C1=O [Compound P17, 3-[5-ethylsulfonyl-6-[1-oxo-6-(trifluoromethyl)-3H-pyrrolo[3,4-c]pyridin-2-yl]-2-pyridyl]oxazolidin-2-one]
≥ 80%: percent effect (mortality or growth inhibition) at 200 ppm [2] | percent effect (mortality or growth inhibition) at 200 ppm [3] | mortality at 200 ppm [4] | mortality at 24 ppm [7] | percent control (mortality, anti-feedant effect or growth inhibition) at 200 ppm [5]

CCC(=O)N(C)c1ccc(S(=O)(=O)CC)c(N2Cc3cnc(C(F)(F)F)cc3C2=O)n1 [Compound P19, N-[5-ethylsulfonyl-6-[1-oxo-6-(trifluoromethyl)-3H-pyrrolo[3,4-c]pyridin-2-yl]-2-pyridyl]-N-methyl-propanamide]
≥ 80%: percent effect (mortality or growth inhibition) at 200 ppm [2] | percent effect (mortality or growth inhibition) at 200 ppm [6] | percent effect (mortality or growth inhibition) at 200 ppm [3] | mortality at 200 ppm [4] | mortality at 24 ppm [7] | percent control (mortality, anti-feedant effect or growth inhibition) at 200 ppm [5]

CCS(=O)(=O)c1ccc(N(C)C(C)=O)nc1N1Cc2cnc(C(F)(F)F)cc2C1=O [Compound P20, N-[5-ethylsulfonyl-6-[1-oxo-6-(trifluoromethyl)-3H-pyrrolo[3,4-c]pyridin-2-yl]-2-pyridyl]-N-methyl-acetamide]
≥ 80%: percent effect (mortality or growth inhibition) at 200 ppm [2] | percent effect (mortality or growth inhibition) at 200 ppm [6] | percent effect (mortality or growth inhibition) at 200 ppm [3] | mortality at 200 ppm [4] | mortality at 24 ppm [7] | percent control (mortality, anti-feedant effect or growth inhibition) at 200 ppm [5]

CCS(=O)(=O)c1cccnc1N1Cc2ccc(C(F)(F)F)cc2C1=O [Compound P21, 2-(3-ethylsulfonyl-2-pyridyl)-6-(trifluoromethyl)isoindolin-1-one]
≥ 80%: mortality at 200 ppm [1] | percent effect (mortality or growth inhibition) at 200 ppm [2] | percent effect (mortality or growth inhibition) at 200 ppm [6] | percent effect (mortality or growth inhibition) at 200 ppm [3] | mortality at 200 ppm [4] | mortality at 24 ppm [7] | percent control (mortality, anti-feedant effect or growth inhibition) at 200 ppm [5]

CCS(=O)(=O)c1cccnc1N1Cc2ncc(C(F)(F)F)cc2C1=O [Compound P22, 6-(3-ethylsulfonyl-2-pyridyl)-3-(trifluoromethyl)-7H-pyrrolo[3,4-b]pyridin-5-one]
≥ 80%: percent effect (mortality or growth inhibition) at 200 ppm [2] | percent effect (mortality or growth inhibition) at 200 ppm [3] | mortality at 200 ppm [4] | mortality at 24 ppm [7] | percent control (mortality, anti-feedant effect or growth inhibition) at 200 ppm [5]

CCS(=O)(=O)c1cccnc1N1Cc2ccc(S(=O)(=O)C(F)(F)F)cc2C1=O [Compound P23, 2-(3-ethylsulfonyl-2-pyridyl)-6-(trifluoromethylsulfonyl)isoindolin-1-one]
≥ 80%: mortality at 200 ppm [1] | percent effect (mortality or growth inhibition) at 200 ppm [2] | percent effect (mortality or growth inhibition) at 200 ppm [6] | percent effect (mortality or growth inhibition) at 200 ppm [3] | mortality at 200 ppm [4] | mortality at 24 ppm [7] | percent control (mortality, anti-feedant effect or growth inhibition) at 200 ppm [5]

CCS(=O)(=O)c1cccnc1N1Cc2ccc(OC(F)(F)F)cc2C1=O [Compound P24, 2-(3-ethylsulfonyl-2-pyridyl)-6-(trifluoromethoxy)isoindolin-1-one]
≥ 80%: percent effect (mortality or growth inhibition) at 200 ppm [2] | percent effect (mortality or growth inhibition) at 200 ppm [3] | mortality at 200 ppm [4] | percent control (mortality, anti-feedant effect or growth inhibition) at 200 ppm [5]

CCS(=O)(=O)c1cc(C2(C#N)CC2)cnc1N1Cc2ccc(OC(F)(F)F)cc2C1=O [Compound P25, 1-[5-ethylsulfonyl-6-[1-oxo-6-(trifluoromethoxy)isoindolin-2-yl]-3-pyridyl]cyclopropanecarbonitrile]
≥ 80%: mortality at 200 ppm [1] | percent effect (mortality or growth inhibition) at 200 ppm [2] | percent effect (mortality or growth inhibition) at 200 ppm [6] | percent effect (mortality or growth inhibition) at 200 ppm [3] | mortality at 200 ppm [4] | percent control (mortality, anti-feedant effect or growth inhibition) at 200 ppm [5]

CCS(=O)(=O)c1cc(C2(C#N)CC2)cnc1N1Cc2ccc(C(F)(F)F)cc2C1=O [Compound P26]
≥ 80%: mortality at 200 ppm [1] | percent effect (mortality or growth inhibition) at 200 ppm [2] | percent effect (mortality or growth inhibition) at 200 ppm [6] | percent effect (mortality or growth inhibition) at 200 ppm [3] | mortality at 200 ppm [4] | percent control (mortality, anti-feedant effect or growth inhibition) at 200 ppm [5]

CCS(=O)(=O)c1cc(C(C)(C)C#N)cnc1N1Cc2ncc(C(F)(F)F)cc2C1=O [Compound P27, 2-[5-ethylsulfonyl-6-[5-oxo-3-(trifluoromethyl)-7H-pyrrolo[3,4-b]pyridin-6-yl]-3-pyridyl]-2-methyl-propanenitrile]
≥ 80%: mortality at 200 ppm [1] | percent effect (mortality or growth inhibition) at 200 ppm [2] | percent effect (mortality or growth inhibition) at 200 ppm [3] | mortality at 24 ppm [7] | percent control (mortality, anti-feedant effect or growth inhibition) at 200 ppm [5]
